# Reference: patent US20060079537A1, “2-Substitutued triazolopyrimidines, methods and intermediate products for the production thereof, the use of the same controlling pathogenic fungi, and agents containing said compounds” (priority 2002, published 2006)
# System: Alternaria solani
# Assay: Activity against early blight of tomato caused by Alternaria solani, protective application
# Assay type: in vivo
# Details: 250 ppm active compound, sprayed to runoff one day before infection; visual rating after 5 days; untreated plants 100% infected
# Method: The active compounds were formulated as a stock solution prepared using 0.25% by weight of active compound in acetone of DMSO. 1% by weight of the emulsifier Uniperol® EL (wetting agent having emulsifying and dispersant action based on ethoxylated alkylphenols) was added to this solution, and the solution was diluted with water to give the desired concentration.
# Leaves of potted plants of the tomato cultivar: “Large Fruited St. Pierre” were sprayed to runoff point with an aqueous suspension having the concentration of active compound stated below. The next day, the leaves were infected with an aqueous spore suspension of Alternaria solani in a 2% biomalt solution having a density of 0.17×10^6 spores/ml. The plants were then placed in a water-vapor-saturated chamber at 20-22° C. After 5 days, the blight on the untreated but infected control plants had developed to such an extent that the infection could be determined visually in %.
smiles,measurement,value
"CSc1nc2nc(C)c(-c3c(F)cc(F)cc3F)c(N3CCC(C)CC3)n2n1 [Example 3, 5-methyl-6-(2,4,6-trifluorophenyl)-7-(4-methylpiperidin-1-yl)-2-thiomethyl-[1,2,4]-triazolo[1,5-a]pyrimidine]",infection,20%
